Measured values from patent US20250304576A1 (Cancer Research Technology Limited, priority 2022, published 2025).

Key:
Recombinant IKKβ = target: T1, Recombinant IKKβ (Homo sapiens, UniProt O14920); test: DELFIA IKKβ kinase assay (apparent Ki, Cheng-Prusoff); format: biochemical
T1 construct: purchased Millipore, Dundee, UK
T1 sequence (O14920 1-756): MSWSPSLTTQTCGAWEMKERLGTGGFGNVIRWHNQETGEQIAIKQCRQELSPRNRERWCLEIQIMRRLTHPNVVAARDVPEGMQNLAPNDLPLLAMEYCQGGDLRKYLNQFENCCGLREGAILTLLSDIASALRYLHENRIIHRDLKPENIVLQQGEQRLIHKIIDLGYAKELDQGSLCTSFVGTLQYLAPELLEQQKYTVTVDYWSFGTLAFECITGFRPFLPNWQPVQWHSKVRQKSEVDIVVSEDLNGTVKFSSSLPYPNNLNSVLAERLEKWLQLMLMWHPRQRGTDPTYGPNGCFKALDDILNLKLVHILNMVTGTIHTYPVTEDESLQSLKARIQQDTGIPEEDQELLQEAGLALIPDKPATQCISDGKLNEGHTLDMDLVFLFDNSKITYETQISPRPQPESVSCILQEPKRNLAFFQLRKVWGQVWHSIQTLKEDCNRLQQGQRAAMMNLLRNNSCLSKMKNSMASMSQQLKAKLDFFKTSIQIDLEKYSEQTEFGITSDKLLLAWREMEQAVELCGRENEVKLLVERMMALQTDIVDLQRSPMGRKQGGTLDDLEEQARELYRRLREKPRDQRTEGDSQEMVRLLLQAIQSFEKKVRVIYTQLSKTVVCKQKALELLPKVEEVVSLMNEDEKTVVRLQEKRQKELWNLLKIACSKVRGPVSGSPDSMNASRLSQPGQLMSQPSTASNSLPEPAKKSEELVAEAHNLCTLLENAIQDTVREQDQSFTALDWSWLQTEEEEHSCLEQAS
Outline: (§1)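 Recombinant IKKα or IKKβ (37 nM) with 0.375 μM biotinylated IκB-α (Ser32) peptide and 40 μM ATP in 40 mM Tris-HCl pH 7.5, 20 mM MgCl2, 60 min at 30° C. Phospho-substrate captured on streptavidin and detected by anti-phospho-IκB-α plus europium anti-mouse IgG time-resolved fluorescence; apparent Ki via Cheng-Prusoff.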

Recombinant IKKα = target: T2, Recombinant IKKα (Homo sapiens, UniProt O15111); test: DELFIA IKKα kinase assay (apparent Ki, Cheng-Prusoff); format: biochemical
T2 construct: purchased Millipore, Dundee, UK
T2 sequence (O15111 1-745): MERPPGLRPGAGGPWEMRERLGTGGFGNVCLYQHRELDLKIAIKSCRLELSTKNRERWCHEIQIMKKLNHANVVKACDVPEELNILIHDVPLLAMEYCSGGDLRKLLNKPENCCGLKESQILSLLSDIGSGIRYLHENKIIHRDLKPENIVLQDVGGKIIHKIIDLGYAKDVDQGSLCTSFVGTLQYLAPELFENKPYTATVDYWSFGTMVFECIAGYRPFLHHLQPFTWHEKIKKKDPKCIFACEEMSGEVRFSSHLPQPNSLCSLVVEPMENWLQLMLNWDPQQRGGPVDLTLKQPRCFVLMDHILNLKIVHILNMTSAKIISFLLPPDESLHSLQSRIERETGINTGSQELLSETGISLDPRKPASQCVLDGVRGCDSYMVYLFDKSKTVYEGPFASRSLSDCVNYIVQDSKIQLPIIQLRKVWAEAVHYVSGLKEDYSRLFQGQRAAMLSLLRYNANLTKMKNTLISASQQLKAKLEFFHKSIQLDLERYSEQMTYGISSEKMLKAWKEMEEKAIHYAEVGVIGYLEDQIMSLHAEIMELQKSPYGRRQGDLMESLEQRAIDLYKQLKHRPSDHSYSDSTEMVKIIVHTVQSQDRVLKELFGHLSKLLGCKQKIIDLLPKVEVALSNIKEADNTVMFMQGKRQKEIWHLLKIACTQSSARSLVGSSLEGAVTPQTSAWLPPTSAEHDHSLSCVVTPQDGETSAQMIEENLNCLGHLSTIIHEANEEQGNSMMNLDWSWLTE
Outline: as §1

[1] = DELFIA assay (first line of an example)
[2] = non-italicised figure: DELFIA assay

Nc1n[nH]c2c(C#CCCN3CCCCC3)cc(-c3ccnc4[nH]ccc34)cc12 [Example 211, 7-(4-(Piperidin-1-yl)but-1-yn-1-yl)-5-(1H-pyrrolo[2,3-b]pyridin-4-yl)-1H-indazol-3-amine]
Ki (Recombinant IKKβ; [1]): 356 nM | Ki (Recombinant IKKα; [1]): 19 nM

Nc1nccc(-c2ccc3[nH]nc(N)c3c2)c1C#CCCC(=O)c1ccccc1 [Example 82, 5-(2-Amino-4-(3-amino-1H-indazol-5-yl)pyridine-3-yl)-1-phenylpent-4-yn-1-one]
Ki (Recombinant IKKβ; [2]): 537 nM | Ki (Recombinant IKKα; [2]): 19 nM

Nc1cc(-c2cc(-c3ccc(CCN4CCOCC4)cc3)c3[nH]nc(N)c3c2)ccn1 [Example 329, 5-(2-Aminopyridin-4-yl)-7-(4-(2-morpholinoethyl)phenyl)-1H-indazol-3-amine]
Ki (Recombinant IKKβ; [1]): 108 nM | Ki (Recombinant IKKα; [1]): 14 nM

CC(C)(C)C#Cc1cc(-c2ccnc(Nc3nc(C(F)(F)F)co3)c2)cc2c(N)n[nH]c12 [Example 316, N-(4-(3-Amino-7-(3,3-dimethylbut-1-yn-1-yl)-1H-indazol-5-yl)pyridin-2-yl)-4-(trifluoromethyl)oxazol-2-amine]
Ki (Recombinant IKKβ; [1]): > 30000 nM | Ki (Recombinant IKKα; [1]): 335 nM

Nc1n[nH]c2ccc(-c3ccnc(NC(=O)Nc4cccc(Cl)c4)c3)cc12 [Example 52, 1-(4-(3-Amino-1H-indazol-5-yl)pyridin-2-yl)-3-(3-chlorophenyl)urea]
Ki (Recombinant IKKβ; [2]): 400 nM | Ki (Recombinant IKKα; [2]): 36 nM

COC(=O)Nc1cc(-c2cc(-c3ccc(CCN4CCOCC4)cc3)c3[nH]nc(N)c3c2)ccn1 [Example 330, Methyl (4-(3-amino-7-(4-(2-morpholinoethyl)phenyl)-1H-indazol-5-yl)pyridin-2-yl)carbamate]
Ki (Recombinant IKKβ; [1]): > 10000 nM | Ki (Recombinant IKKα; [1]): > 10000 nM

Nc1n[nH]c2ccc(-c3ccnc(NC(=O)Nc4cccnc4)c3)cc12 [Example 69, 1-(4-(3-Amino-1H-indazol-5-yl)pyridin-2-yl)-3-(pyridin-3-yl)urea]
Ki (Recombinant IKKβ; [2]): 1190 nM | Ki (Recombinant IKKα; [2]): 42 nM

Nc1n[nH]c2ccc(-c3ccnc(NCCCO)n3)cc12 [Example 28, 3-((4-(3-Amino-1H-indazol-5-yl)pyrimidin-2-yl)amino)propan-1-ol]
Ki (Recombinant IKKβ; [2]): 460 nM | Ki (Recombinant IKKα; [2]): 65 nM

Nc1cc(-c2cc(-c3ccc(CO)cc3)c3[nH]nc(N)c3c2)ccn1 [Example 118]
Ki (Recombinant IKKβ; [2]): 406 nM | Ki (Recombinant IKKα; [2]): 29 nM

Nc1n[nH]c2c(-c3ccoc3)cc(-c3ccnc4[nH]ccc34)cc12 [Example 199, 7-(Furan-3-yl)-5-(1H-pyrrolo[2,3-b]pyridin-4-yl)-1H-indazol-3-amine]
Ki (Recombinant IKKβ; [1]): 45 nM | Ki (Recombinant IKKα; [1]): 6 nM

CC(C)(C)C#Cc1cc(-c2ccnc(Nc3c[nH]cn3)c2)cc2c(N)n[nH]c12 [Example 318, 5-(2-((1H-Imidazol-4-yl)amino)pyridin-4-yl)-7-(3,3-dimethylbut-1-yn-1-yl)-1H-indazol-3-amine]
Ki (Recombinant IKKβ; [1]): 502 nM | Ki (Recombinant IKKα; [1]): 66 nM

CC(=O)Nc1cc(-c2cc(C#CC(C)(C)C)c3[nH]nc(N)c3c2)ccn1 [Example 164, N-(4-(3-Amino-7-(3,3-dimethylbut-1-yn-1-yl)-1H-indazol-5-yl)pyridin-2-yl)acetamide]
Ki (Recombinant IKKβ; [2]): 350 nM | Ki (Recombinant IKKα; [2]): 15 nM

Nc1n[nH]c2c(C#CCCCCOc3ccccc3)cc(-c3ccnc4[nH]ccc34)cc12 [Example 217, 7-(6-Phenoxyhex-1-yn-1-yl)-5-(1H-pyrrolo[2,3-b]pyridin-4-yl)-1H-indazol-3-amine]
Ki (Recombinant IKKβ; [1]): 1260 nM | Ki (Recombinant IKKα; [1]): 243 nM

CC(C)(C)C#Cc1cc(-c2ccnc3[nH]c(C4CC4)cc23)cc2c(N)n[nH]c12 [Example 294, 5-(2-Cyclopropyl-1H-pyrrolo[2,3-b]pyridin-4-v)-7-(3,3-dimethylbut-1-yn-1-Vl)-1H-indazol-3-amine]
Ki (Recombinant IKKβ; [1]): 322 nM | Ki (Recombinant IKKα; [1]): 57 nM

Nc1n[nH]c2ccc(-c3ccnc4[nH]c(CCCNC5CCCCC5)cc34)cc12 [Example 270, 5-(2-(3-(Cyclohexylamino)propyl)-1H-pyrrolo[2,3-b]pyridin-4-yl)-1H-indazol-3-amine]
Ki (Recombinant IKKβ; [1]): 65 nM | Ki (Recombinant IKKα; [1]): 4 nM

CC1(C#Cc2cc(-c3ccnc(N)c3)cc3c(N)n[nH]c23)COC1 [Example 141, 5-(2-Aminopyridin-4-yl)-7-((3-methyloxetan-3-yl)ethynyl)-1H-indazol-3-amine]
Ki (Recombinant IKKβ; [2]): 380 nM | Ki (Recombinant IKKα; [2]): 14 nM

Nc1n[nH]c2c(C#CC3(O)CCCCC3)cc(-c3ccnc4[nH]ccc34)cc12 [Example 208, 1-((3-Amino-5-(1H-pyrrolo[2,3-b]pyridin-4-yl)-1H-indazol-7-yl)ethynyl)cyclohexan-1-ol]
Ki (Recombinant IKKβ; [1]): 528 nM | Ki (Recombinant IKKα; [1]): 76 nM

CC(C)(C)C#Cc1cc(-c2ccnc(NC#N)c2)cc2c(N)n[nH]c12 [Example 309, N-(4-(3-Amino-7-(3,3-dimethylbut-1-yn-1-yl)-1H-indazol-5-yl)pyridin-2-yl)cyanamide]
Ki (Recombinant IKKβ; [1]): 8660 nM | Ki (Recombinant IKKα; [1]): 421 nM

CC(C)(C)C#Cc1cc(-c2ccnc(Nc3ncccn3)c2)cc2c(N)n[nH]c12 [Example 321, 7-(3,3-Dimethylbut-1-yn-1-yl)-5-(2-(pyrimidin-2-ylamino)pyridin-4-yl)-1H-indazol-3-amine]
Ki (Recombinant IKKβ; [1]): 4580 nM | Ki (Recombinant IKKα; [1]): 202 nM

Nc1n[nH]c2ccc(-c3ccnc4[nH]c(C(=O)NCCN5CCCCC5)cc34)cc12 [Example 244, 4-(3-Amino-1H-indazol-5-yl)-N-(2-(piperidin-1-yl)ethyl)-1H-pyrrolo[2,3-b]pyridine-2-carboxamide]
Ki (Recombinant IKKβ; [1]): 109 nM | Ki (Recombinant IKKα; [1]): 8 nM

Nc1n[nH]c2ccc(-c3ccnc4[nH]c(C(=O)NCCCc5ccccc5)cc34)cc12 [Example 239, 4-(3-Amino-1H-indazol-5-yl)-N-(3-phenylpropyl)-1H-pyrrolo[2,3-b]pyridine-2-carboxamide]
Ki (Recombinant IKKβ; [1]): 60 nM | Ki (Recombinant IKKα; [1]): 5 nM

CC(C)(C)C#Cc1cc(-c2ccnc(NC3CCC3)c2)cc2c(N)n[nH]c12 [Example 154, 5-(2-(Cyclobutylamino)pyridin-4-yl)-7-(3,3-dimethylbut-1-yn-1-yl)-1H-indazol-3-amine]
Ki (Recombinant IKKβ; [2]): 1690 nM | Ki (Recombinant IKKα; [2]): 120 nM

NC(=O)c1cccc(-c2cc(-c3ccnc(N)c3)cc3c(N)n[nH]c23)c1 [Example 113, 3-(3-Amino-5-(2-aminopyridin-4-yl)-1H-indazol-7-yl)benzamide]
Ki (Recombinant IKKβ; [2]): 840 nM | Ki (Recombinant IKKα; [2]): 43 nM

CC(C)(C)C#Cc1cc(-c2cc(N)ncc2F)cc2c(N)n[nH]c12 [Example 148, 5-(2-Amino-5-fluoropyridin-4-yl)-7-(3,3-dimethylbut-1-yn-1-yl)-1H-indazol-3-amine]
Ki (Recombinant IKKβ; [2]): 2330 nM | Ki (Recombinant IKKα; [2]): 23 nM

Nc1n[nH]c2c(Cl)cc(-c3ccnc4[nH]c(CC5CCCCC5)cc34)cc12 [Example 275, 7-Chloro-5-(2-(cyclohexylmethyl)-1H-pyrrolo[2,3-b]pyridin-4-yl)-1H-indazol-3-amine]
Ki (Recombinant IKKβ; [1]): 376 nM | Ki (Recombinant IKKα; [1]): 37 nM

CC(C)(C)C#Cc1cc(-c2ccnc(Nc3cc[nH]n3)c2)cc2c(N)n[nH]c12 [Example 310, 5-(2-((1H-Pyrazol-3-yl)amino)pyridin-4-yl)-7-(3,3-dimethylbut-1-yn-1-yl)-1H-indazol-3-amine]
Ki (Recombinant IKKβ; [1]): 205 nM | Ki (Recombinant IKKα; [1]): 48 nM

CC(C)C(=O)Nc1cc(-c2cc(C#CC(C)(C)C)c3[nH]nc(N)c3c2)ccn1 [Example 168, N-(4-(3-Amino-7-(3,3-dimethylbut-1-yn-1-yl)-1H-indazol-5-yl)pyridin-2-yl)isobutyramide]
Ki (Recombinant IKKβ; [2]): 2580 nM | Ki (Recombinant IKKα; [2]): 273 nM

COC(=O)c1cc2c(-c3ccc4[nH]nc(N)c4c3)ccnc2[nH]1 [Example 231, Methyl 4-(3-amino-1H-indazol-5-yl)-1H-pyrrolo[2,3-b]pyridine-2-carboxylate]
Ki (Recombinant IKKβ; [1]): 419 nM | Ki (Recombinant IKKα; [1]): 9 nM
